Data on 15 compounds can be found in BindingDB's records for doi:10.1021/jm800940u (Schering-Plough Research Institute, 2009).

The assay concerns the target Genome polyprotein (Hepatitis C virus genotype 1a (isolate H77), UniProt P27958). As to the kind of experiment: Continuous Spectrophotometric Assay. The procedure: Proteolytic cleavage of the ester linkage between the Nva (L-norvaline) and the chromophore (PAP) was monitored for change in absorbance at 370 nm. Initial velocities were determined using linear regression and kinetic constants were obtained by fitting the data to the Michaelis-Menten equation.

Genome polyprotein, sequence (P27958 1027-1657 limits assumed): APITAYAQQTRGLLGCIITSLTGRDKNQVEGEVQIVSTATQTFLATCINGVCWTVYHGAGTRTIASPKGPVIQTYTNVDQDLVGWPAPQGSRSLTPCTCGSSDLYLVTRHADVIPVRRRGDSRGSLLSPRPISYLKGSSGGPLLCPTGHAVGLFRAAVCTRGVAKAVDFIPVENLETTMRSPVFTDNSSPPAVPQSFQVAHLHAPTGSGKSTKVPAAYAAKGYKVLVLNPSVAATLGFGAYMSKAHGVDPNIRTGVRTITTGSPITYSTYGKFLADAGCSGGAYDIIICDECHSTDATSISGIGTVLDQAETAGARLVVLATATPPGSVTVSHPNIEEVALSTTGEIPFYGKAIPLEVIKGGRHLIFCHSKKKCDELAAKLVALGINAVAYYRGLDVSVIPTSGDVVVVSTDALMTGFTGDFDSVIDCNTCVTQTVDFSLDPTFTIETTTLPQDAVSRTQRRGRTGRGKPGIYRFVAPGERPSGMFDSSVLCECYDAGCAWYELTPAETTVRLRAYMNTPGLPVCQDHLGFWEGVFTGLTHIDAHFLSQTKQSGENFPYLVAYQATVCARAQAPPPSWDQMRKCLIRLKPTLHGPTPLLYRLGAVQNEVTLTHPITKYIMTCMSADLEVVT

`CC(C)(C)OC(=O)N[C@H]1CCCCCCCCCC[C@@H](C(=O)C(N)=O)NC(=O)[C@@H]2[C@@H]3[C@H](CN2C1=O)C3(C)C` [tert-butyl N-[(3S,14S,17S,18R,20S)-14-(carbamoylcarbonyl)-19,19-dimethyl-2,16-dioxo-1,15-diazatricyclo[15.4.0.0^{18,20}]henicosan-3-yl]carbamate]: the Ki (commonly the dissociation constant of the complex between target and ligand, obtained from inhibition or displacement) (pH 6.5, 30 °C) stood at 59 nM. Consider `CN(C[C@@H](NC(=O)N[C@H]1CCCCCCCCC[C@@H](C(=O)C(=O)NCC2CC2)NC(=O)[C@@H]2[C@@H]3[C@H](CN2C1=O)C3(C)C)C(C)(C)C)S(=O)(=O)c1cccs1` [N-(cyclopropylmethyl)-2-[(3S,13S,16S,17R,19S)-3-({[(2S)-3,3-dimethyl-1-[methyl(thiophene-2-)sulfonamido]butan-2-yl]carbamoyl}amino)-18,18-dimethyl-2,15-dioxo-1,14-diazatricyclo[14.4.0.0^{17,19}]icosan-13-yl]-2-oxoacetamide], for which the affinity (pH 6.5, 30 °C) corresponds to a Ki of 21 nM.

As for `C=CCNC(=O)C(=O)[C@@H]1CCCCCCCCC[C@H](NC(=O)N[C@H](CN(C)S(=O)(=O)c2cccs2)C(C)(C)C)C(=O)N2C[C@H]3[C@@H]([C@H]2C(=O)N1)C3(C)C` [2-[(3S,13S,16S,17R,19S)-3-({[(2S)-3,3-dimethyl-1-[methyl(thiophene-2-)sulfonamido]butan-2-yl]carbamoyl}amino)-18,18-dimethyl-2,15-dioxo-1,14-diazatricyclo[14.4.0.0^{17,19}]icosan-13-yl]-2-oxo-N-(prop-2-en-1-yl)acetamide], the Ki (pH 6.5, 30 °C) was determined as 5 nM. With `CC(C)(C)NC(=O)N[C@H]1CCCCCCCCCC[C@@H](C(=O)C(N)=O)NC(=O)[C@@H]2[C@@H]3[C@H](CN2C1=O)C3(C)C` [2-[(3S,14S,17S,18R,20S)-3-[(tert-butylcarbamoyl)amino]-19,19-dimethyl-2,16-dioxo-1,15-diazatricyclo[15.4.0.0^{18,20}]henicosan-14-yl]-2-oxoacetamide], the affinity (pH 6.5, 30 °C) corresponds to a Ki of 59 nM.

Compound `CC(C)[C@H](NC(=O)N[C@H]1CCCCCCCCC[C@@H](C(=O)C(N)=O)NC(=O)[C@@H]2[C@@H]3[C@H](CN2C1=O)C3(C)C)C(=O)C1CC1` [2-[(3S,13S,16S,17R,19S)-3-({[(2S)-1-cyclopropyl-3-methyl-1-oxobutan-2-yl]carbamoyl}amino)-18,18-dimethyl-2,15-dioxo-1,14-diazatricyclo[14.4.0.0^{17,19}]icosan-13-yl]-2-oxoacetamide] gave a Ki (pH 6.5, 30 °C) of 11 nM. `CN(C[C@@H](NC(=O)N[C@H]1CCCCCCCCC[C@@H](C(=O)C(N)=O)NC(=O)[C@@H]2[C@@H]3[C@H](CN2C1=O)C3(C)C)C(C)(C)C)S(=O)(=O)c1cccs1` [2-[(3S,13S,16S,17R,19S)-3-({[(2S)-3,3-dimethyl-1-[methyl(thiophene-2-)sulfonamido]butan-2-yl]carbamoyl}amino)-18,18-dimethyl-2,15-dioxo-1,14-diazatricyclo[14.4.0.0^{17,19}]icosan-13-yl]-2-oxoacetamide]: the affinity (pH 6.5, 30 °C) corresponds to a Ki of 2 nM.

For the compound `C=CCNC(=O)C(=O)[C@@H]1CCCCCCCCC[C@H](NC(=O)N[C@H](CN(C)S(=O)(=O)N(C)C)C(C)(C)C)C(=O)N2C[C@H]3[C@@H]([C@H]2C(=O)N1)C3(C)C` [2-[(3S,13S,16S,17R,19S)-3-({[(2S)-1-[(dimethylsulfamoyl)(methyl)amino]-3,3-dimethylbutan-2-yl]carbamoyl}amino)-18,18-dimethyl-2,15-dioxo-1,14-diazatricyclo[14.4.0.0^{17,19}]icosan-13-yl]-2-oxo-N-(prop-2-en-1-yl)acetamide], the Ki worked out at 13 nM.

`CC1(NC(=O)N[C@H]2CCCCCCCCCC[C@@H](C(=O)C(N)=O)NC(=O)[C@@H]3[C@@H]4[C@H](CN3C2=O)C4(C)C)CCCCC1` [2-[(3S,14S,17S,18R,20S)-19,19-dimethyl-3-{[(1-methylcyclohexyl)carbamoyl]amino}-2,16-dioxo-1,15-diazatricyclo[15.4.0.0^{18,20}]henicosan-14-yl]-2-oxoacetamide] yielded a Ki (pH 6.5, 30 °C) of 36 nM. For the compound `CN(C)C(=O)[C@@H](NC(=O)CNC(=O)C(=O)[C@@H]1CCCC/C=C/CCCC[C@H](NC(=O)OC(C)(C)C)C(=O)N2C[C@H]3[C@@H]([C@H]2C(=O)N1)C3(C)C)c1ccccc1` [tert-butyl N-[(3S,8E,14S,17S,18R,20S)-14-{[({[(S)-(dimethylcarbamoyl)(phenyl)methyl]carbamoyl}methyl)carbamoyl]carbonyl}-19,19-dimethyl-2,16-dioxo-1,15-diazatricyclo[15.4.0.0^{18,20}]henicos-8-en-3-yl]carbamate], the affinity (pH 6.5, 30 °C) corresponds to a Ki of 5 nM.

As to `C=CCNC(=O)C(=O)[C@@H]1CCCCCCCCC[C@H](NC(=O)N[C@H](CN2C(=O)CN(C)CC2=O)C(C)(C)C)C(=O)N2C[C@H]3[C@@H]([C@H]2C(=O)N1)C3(C)C` [2-[(3S,13S,16S,17R,19S)-3-({[(2S)-3,3-dimethyl-1-(4-methyl-2,6-dioxopiperazin-1-yl)butan-2-yl]carbamoyl}amino)-18,18-dimethyl-2,15-dioxo-1,14-diazatricyclo[14.4.0.0^{17,19}]icosan-13-yl]-2-oxo-N-(prop-2-en-1-yl)acetamide], the Ki came out at 4 nM.

Consider `C=CCNC(=O)C(=O)[C@@H]1CCCCCCCCC[C@H](NC(=O)N[C@H](C(=O)C2CC2)C2CCCCC2)C(=O)N2C[C@H]3[C@@H]([C@H]2C(=O)N1)C3(C)C` [2-[(3S,13S,16S,17R,19S)-3-({[(1S)-1-cyclohexyl-2-cyclopropyl-2-oxoethyl]carbamoyl}amino)-18,18-dimethyl-2,15-dioxo-1,14-diazatricyclo[14.4.0.0^{17,19}]icosan-13-yl]-2-oxo-N-(prop-2-en-1-yl)acetamide], for which affinity was put at a Ki of 6 nM.

As to `C=CCNC(=O)C(=O)[C@@H]1CCCCCCCCC[C@H](NC(=O)N[C@H](CN2C(=O)C3CCC(C3)C2=O)C(C)(C)C)C(=O)N2C[C@H]3[C@@H]([C@H]2C(=O)N1)C3(C)C` [2-[(3S,13S,16S,17R,19S)-3-({[(2S)-1-{2,4-dioxo-3-azabicyclo[3.2.1]octan-3-yl}-3,3-dimethylbutan-2-yl]carbamoyl}amino)-18,18-dimethyl-2,15-dioxo-1,14-diazatricyclo[14.4.0.0^{17,19}]icosan-13-yl]-2-oxo-N-(prop-2-en-1-yl)acetamide], the affinity, expressed as Ki, was 3 nM. For the compound `C=CCNC(=O)C(=O)[C@@H]1CCCCCCCCC[C@H](NC(=O)N[C@H](CN(C)S(C)(=O)=O)C(C)(C)C)C(=O)N2C[C@H]3[C@@H]([C@H]2C(=O)N1)C3(C)C` [2-[(3S,13S,16S,17R,19S)-3-({[(2S)-1-[methane(methyl)sulfonamido]-3,3-dimethylbutan-2-yl]carbamoyl}amino)-18,18-dimethyl-2,15-dioxo-1,14-diazatricyclo[14.4.0.0^{17,19}]icosan-13-yl]-2-oxo-N-(prop-2-en-1-yl)acetamide], the affinity, expressed as Ki, was 3 nM. Compound `CC(C)(C)OC(=O)N[C@H]1CCCCCCCCC[C@@H](C(=O)C(N)=O)NC(=O)[C@@H]2[C@@H]3[C@H](CN2C1=O)C3(C)C` [tert-butyl N-[(3S,13S,16S,17R,19S)-13-(carbamoylcarbonyl)-18,18-dimethyl-2,15-dioxo-1,14-diazatricyclo[14.4.0.0^{17,19}]icosan-3-yl]carbamate] showed a Ki (pH 6.5, 30 °C) of 30 nM. On the same count and under the same terms, then `CC(C)(C)OC(=O)N[C@H]1CCCCCCCCCC[C@@H](C(=O)C(=O)NCC(=O)NCc2ccccc2)NC(=O)[C@@H]2[C@@H]3[C@H](CN2C1=O)C3(C)C` [tert-butyl N-[(3S,14S,17S,18R,20S)-14-({[(benzylcarbamoyl)methyl]carbamoyl}carbonyl)-19,19-dimethyl-2,16-dioxo-1,15-diazatricyclo[15.4.0.0^{18,20}]henicosan-3-yl]carbamate], with 89 nM.
